Experimental data from ChEMBL document CHEMBL1147792, “Functional organisation and gain of activity: the case of the antibacterial tetra-para-guanidinoethyl-calix[4]arene” (Bioorg Med Chem Lett, 2006).
“And” between values parts separate entries of the source, which are not always exact repeats. Equal entries are not always repeated. The source made the active and inactive calls. The calls are words filed in the database; no cut-off is given here.

Assays:
[1] = system: Staphylococcus aureus; experiment: Antibacterial activity against Staphylococcus aureus ATCC 25923 at 135 ug by disk diffusion method; assay type: functional
[2] = system: Staphylococcus aureus; experiment: Antibacterial activity against Staphylococcus aureus ATCC 25923 at 34 ug by disk diffusion method; assay type: functional
[3] = system: Escherichia coli; experiment: Antibacterial activity against Escherichia coli ATCC 25922 at 270 ug by disk diffusion method; assay type: functional
[4] = system: Pseudomonas aeruginosa; experiment: Antibacterial activity against Pseudomonas aeruginosa ATCC 27853; assay type: functional
[5] = system: Enterococcus faecalis; experiment: Antibacterial activity against Enterococcus faecalis ATCC 29212 at 67 ug by disk diffusion method; assay type: functional
[6] = system: Pseudomonas aeruginosa; experiment: Antibacterial activity against Pseudomonas aeruginosa ATCC 27853 at 67 ug by disk diffusion method; assay type: functional, organism-based
[7] = system: Escherichia coli; experiment: Antibacterial activity against Escherichia coli ATCC 25922 at 67 ug by disk diffusion method; assay type: functional
[8] = system: MRC5; experiment: Ratio of IC50 for viability of MRC5 cells after 48 hrs to MIC for Escherichia coli ATCC 25922; assay type: functional
[9] = system: Pseudomonas aeruginosa; experiment: Antibacterial activity against Pseudomonas aeruginosa ATCC 27853 at 135 ug by disk diffusion method; assay type: functional, organism-based
[10] = system: Enterococcus faecalis; experiment: Antibacterial activity against Enterococcus faecalis ATCC 29212; assay type: functional
[11] = system: MRC5; experiment: Viability of human MRC5 cells after 48 hrs; assay type: functional, cell-based; details: MRC5, 48 h
[12] = system: Pseudomonas aeruginosa; experiment: Antibacterial activity against Pseudomonas aeruginosa ATCC 27853 at 270 ug by disk diffusion method; assay type: functional
[13] = system: MRC5; experiment: Ratio of IC50 for viability of MRC5 cells after 48 to MIC for Enterococcus faecalis ATCC 29212; assay type: functional
[14] = system: Enterococcus faecalis; experiment: Antibacterial activity against Enterococcus faecalis ATCC 29212 at 34 ug by disk diffusion method; assay type: functional, organism-based
[15] = system: Pseudomonas aeruginosa; experiment: Antibacterial activity against Pseudomonas aeruginosa ATCC 27853 at 34 ug by disk diffusion method; assay type: functional, organism-based
[16] = system: Escherichia coli; experiment: Antibacterial activity against Escherichia coli ATCC 25922; assay type: functional
[17] = system: Staphylococcus aureus; experiment: Antibacterial activity against Staphylococcus aureus ATCC 25923 at 270 ug by disk diffusion method; assay type: functional
[18] = system: Escherichia coli; experiment: Antibacterial activity against Escherichia coli ATCC 25922 against at 135 ug by disk diffusion method; assay type: functional
[19] = system: Escherichia coli; experiment: Antibacterial activity against Escherichia coli ATCC 25922 at 34 ug by disk diffusion method; assay type: functional, organism-based
[20] = system: Enterococcus faecalis; experiment: Antibacterial activity against Enterococcus faecalis ATCC 29212 at 135 ug by disk diffusion method; assay type: functional
[21] = system: Staphylococcus aureus; experiment: Antibacterial activity against Staphylococcus aureus ATCC 25923; assay type: functional
[22] = system: MRC5; experiment: Ratio of IC50 for viability of MRC5 cells after 48 to MIC for Pseudomonas aeruginosa ATCC 27853; assay type: functional
[23] = system: Staphylococcus aureus; experiment: Antibacterial activity against Staphylococcus aureus ATCC 25923 at 67 ug by disk diffusion method; assay type: functional
[24] = system: MRC5; experiment: Ratio of IC50 for viability of MRC5 cells after 48 to MIC for Staphylococcus aureus ATCC 25923; assay type: functional
[25] = system: Enterococcus faecalis; experiment: Antibacterial activity against Enterococcus faecalis ATCC 29212 at 270 ug by disk diffusion method; assay type: functional
[26] = system: Escherichia coli; experiment: Antibacterial activity against Escherichia coli ATCC 25922 at 128 ug by disk diffusion method; assay type: functional, organism-based
[27] = system: Enterococcus faecalis; experiment: Antibacterial activity against Enterococcus faecalis ATCC 29212 at 128 ug by disk diffusion method; assay type: functional, organism-based
[28] = system: Staphylococcus aureus; experiment: Antibacterial activity against Staphylococcus aureus ATCC 25923 at 65 ug by disk diffusion method; assay type: functional, organism-based
[29] = system: Pseudomonas aeruginosa; experiment: Antibacterial activity against Pseudomonas aeruginosa ATCC 27853 at 256 ug by disk diffusion method; assay type: functional, organism-based
[30] = system: Pseudomonas aeruginosa; experiment: Antibacterial activity against Pseudomonas aeruginosa ATCC 27853 at 32 ug by disk diffusion method; assay type: functional, organism-based
[31] = system: Escherichia coli; experiment: Antibacterial activity against Escherichia coli ATCC 25922 at 65 ug by disk diffusion method; assay type: functional, organism-based
[32] = system: Escherichia coli; experiment: Antibacterial activity against Escherichia coli ATCC 25922 at 256 ug by disk diffusion method; assay type: functional
[33] = system: Enterococcus faecalis; experiment: Antibacterial activity against Enterococcus faecalis ATCC 29212 at 256 ug by disk diffusion method; assay type: functional, organism-based
[34] = system: Escherichia coli; experiment: Antibacterial activity against Escherichia coli ATCC 25922 at 32 ug by disk diffusion method; assay type: functional, organism-based
[35] = system: Staphylococcus aureus; experiment: Antibacterial activity against Staphylococcus aureus ATCC 25923 at 256 ug by disk diffusion method; assay type: functional
[36] = system: Staphylococcus aureus; experiment: Antibacterial activity against Staphylococcus aureus ATCC 25923 at 32 ug by disk diffusion method; assay type: functional, organism-based
[37] = system: Staphylococcus aureus; experiment: Antibacterial activity against Staphylococcus aureus ATCC 25923 at 128 ug by disk diffusion method; assay type: functional, organism-based
[38] = system: Pseudomonas aeruginosa; experiment: Antibacterial activity against Pseudomonas aeruginosa ATCC 27853 at 128 ug by disk diffusion method; assay type: functional, organism-based
[39] = system: Pseudomonas aeruginosa; experiment: Antibacterial activity against Pseudomonas aeruginosa ATCC 27853 at 65 ug by disk diffusion method; assay type: functional, organism-based
[40] = system: Enterococcus faecalis; experiment: Antibacterial activity against Enterococcus faecalis ATCC 29212 at 32 ug by disk diffusion method; assay type: functional, organism-based
[41] = system: Enterococcus faecalis; experiment: Antibacterial activity against Enterococcus faecalis ATCC 29212 at 65 ug by disk diffusion method; assay type: functional, organism-based

N=C(N)NCCc1cc2c(O)c(c1)Cc1cc(CCNC(=N)N)cc(c1O)Cc1cc(CCNC(=N)N)cc(c1O)Cc1cc(CCNC(=N)N)cc(c1O)C2.O=C(O)C(F)(F)F.O=C(O)C(F)(F)F.O=C(O)C(F)(F)F.O=C(O)C(F)(F)F
inhibition zone (IZ) [1]: 9 mm | inhibition zone (IZ) [2]: 6.3 mm | inhibition zone (IZ) [3]: 11.2 mm | MIC [4]: 16 µg/mL and 13 µM | inhibition zone (IZ) [5]: 6.6 mm | inhibition zone (IZ) [6]: inactive | inhibition zone (IZ) [7]: 7.3 mm | Selectivity index [8]: 43 | inhibition zone (IZ) [9]: inactive | MIC [10]: 64 µg/mL and 51 µM | IC50 [11]: 560 µM | inhibition zone (IZ) [12]: 7.8 mm | Selectivity index [13]: 11 | inhibition zone (IZ) [14]: inactive | inhibition zone (IZ) [15]: inactive | MIC [16]: 16 µg/mL and 13 µM | inhibition zone (IZ) [17]: 11 mm | inhibition zone (IZ) [18]: 9.3 mm | inhibition zone (IZ) [19]: inactive | inhibition zone (IZ) [20]: 8.3 mm | MIC [21]: 16 µg/mL and 13 µM | Selectivity index [22]: 43 | inhibition zone (IZ) [23]: 8 mm | Selectivity index [24]: 43 | inhibition zone (IZ) [25]: 10 mm

N=C(N)NCCc1ccc(O)cc1.O=C(O)C(F)(F)F
inhibition zone (IZ) [26]: inactive | inhibition zone (IZ) [27]: inactive | MIC [4]: 512 µg/mL and 1750 µM | inhibition zone (IZ) [28]: inactive | inhibition zone (IZ) [29]: inactive | Selectivity index [8]: 0.48 | MIC [10]: ≥ 512 µg/mL and 1750 µM | inhibition zone (IZ) [30]: inactive | inhibition zone (IZ) [31]: inactive | IC50 [11]: 850 µM | inhibition zone (IZ) [32]: 7.6 mm | Selectivity index [13]: <=0.48 | inhibition zone (IZ) [33]: inactive | MIC [16]: 512 µg/mL and 1750 µM | inhibition zone (IZ) [34]: inactive | inhibition zone (IZ) [35]: 7.8 mm | inhibition zone (IZ) [36]: inactive | inhibition zone (IZ) [37]: inactive | MIC [21]: 512 µg/mL and 1750 µM | Selectivity index [22]: 0.48 | inhibition zone (IZ) [38]: inactive | inhibition zone (IZ) [39]: inactive | inhibition zone (IZ) [40]: inactive | Selectivity index [24]: 0.48 | inhibition zone (IZ) [41]: inactive
